# From US6340455B1, “Testkit and method” (Peridoc AB, priority 1996, dated 2002)
# System: individuals (patients with severe marginal periodontitis, healthy control individuals)
# Test: Skin Prick Test with Lipid A
# Type: in vivo, human
# Settings: for % + with 0.1 mg Lipid A / % + with 1 mg Lipid A: result registered after 18 to 24 hours
# Protocol: Skin Prick Test with Lipid A was performed on three groups of individuals:
# Patients with severe marginal periodontitis which responds to treatment.
# Healthy control individuals without marginal periodontitis.
# (The test was performed according to a routine procedure as described in Aas K, Backman A, Berlin L, Weeke B. Standardization of allergen extracts with appropriate methods. The combined use of skin prick testing and standardization of allergen extracts. Acta Allergol 1978; 33:238-240, and in Malling H-J. The skin prick testing and the use of histamine references. Allergy 1984; 39:596-601).
# Patient and disease characteristics for the three groups can be found in Table 1 below. GI (gingival index) was used as measure of active disease. […] The test substance was Lipid A dissolved in water (0.1 mg/ml and 1 mg/ml). Histamine (10 mg/ml in water) and water served as positive and negative controls, respectively. The result was registered after 18 to 24 hours.
# Students t-test was employed to test levels of significance for differences between test and control groups.
# [1] = healthy control individuals without marginal periodontitis, n=16
# [2] = patients with severe marginal periodontitis which responds to treatment (GI ≦ 20), n=38
# [3] = refractory patients: severe marginal periodontitis not responding to treatment (GI > 20), n=14
Compound,"skin prick reaction (positive/negative) (all individuals of the three groups, histamine 10 mg/ml in water, positive control)",% + with 0.1 mg Lipid A [1],% + with 1 mg Lipid A [1],% + with 0.1 mg Lipid A [2],% + with 1 mg Lipid A [2],response to Lipid A in skin prick test (in words) (refractory patients (severe marginal periodontitis not responding to treatment)),% + with 0.1 mg Lipid A [3],% + with 1 mg Lipid A [3]
NCCc1c[nH]cn1 [histamine],reacted positively,–,–,–,–,–,–,–
Lipid A,–,18.8%,50.0%,21.1%,57.9%,almost no positive response,7.1%,7.1%
